The record followed here is publication PMC7771846 (Biomolecules & Therapeutics, 2020).

By Kd is commonly meant the equilibrium constant for the complex coming apart. Higher therefore signals a looser complex.

For this assay, the target named is Hsp90α (Homo sapiens, UniProt P07900). Kind of assay: SPR. The format is binding.

Consider `CN1C(=O)[C@@]23C[C@]4([C@]56C[C@@]78SS[C@@](CO)(C(=O)N7[C@H]5Nc5ccccc56)N(C)C8=O)c5ccccc5N[C@@H]4N2C(=O)[C@]1(CO)SS3` [Chaetocin], for which the equilibrium dissociation constant (Kd) is 2820 nM.
